Laboratory results published in patent publication US10799605B2 (3B PHARMACEUTICALS GMBH, priority 2014, dated 2020).
Where two headings read alike, the source gives them in different places.

What was measured:
5-HT1A (h) = 5-HT1A (h) (Homo sapiens (Human), UniProt P08908); assay: ExpresSProfile: 5-hydroxytryptamine receptor 1A, agonist radioligand; assay type: binding; conditions: Test Concentration 1.0E−05 M
MT1 (ML1A) (h) = MT1 (ML1A) (h) (Homo sapiens (Human), UniProt P48039); assay: ExpresSProfile: melatonin receptor 1, agonist radioligand; assay type: binding; conditions: Test Concentration 1.0E−05 M
Sequence of MT1 (ML1A) (h) (P48039 whole entry): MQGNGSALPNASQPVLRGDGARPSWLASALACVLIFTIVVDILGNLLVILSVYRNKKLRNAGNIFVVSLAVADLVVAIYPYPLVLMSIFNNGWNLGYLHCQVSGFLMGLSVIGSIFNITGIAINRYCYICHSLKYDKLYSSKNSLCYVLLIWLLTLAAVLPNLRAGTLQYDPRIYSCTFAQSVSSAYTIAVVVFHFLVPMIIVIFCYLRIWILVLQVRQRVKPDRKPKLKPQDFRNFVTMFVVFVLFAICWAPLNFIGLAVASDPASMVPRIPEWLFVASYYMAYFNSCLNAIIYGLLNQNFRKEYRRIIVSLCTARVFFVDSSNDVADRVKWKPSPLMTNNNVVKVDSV

V1a (h) = V1a (h) (Homo sapiens (Human), UniProt P37288); assay: ExpresSProfile: V1a, agonist radioligand; assay type: binding; conditions: Test Concentration 1.0E−05 M
Sequence of V1a (h) (P37288 whole entry): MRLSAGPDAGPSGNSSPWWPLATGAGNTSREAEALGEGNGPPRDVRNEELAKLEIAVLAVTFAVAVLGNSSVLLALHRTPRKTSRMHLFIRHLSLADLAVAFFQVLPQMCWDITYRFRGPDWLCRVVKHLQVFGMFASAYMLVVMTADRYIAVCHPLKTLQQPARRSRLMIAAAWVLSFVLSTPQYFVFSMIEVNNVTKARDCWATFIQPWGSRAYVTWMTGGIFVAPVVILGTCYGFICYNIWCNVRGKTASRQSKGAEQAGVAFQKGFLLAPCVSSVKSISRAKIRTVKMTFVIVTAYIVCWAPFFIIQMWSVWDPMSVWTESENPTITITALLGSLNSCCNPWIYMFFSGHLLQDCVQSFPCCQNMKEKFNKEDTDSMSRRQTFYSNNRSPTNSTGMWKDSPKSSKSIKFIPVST

Y1 (h) = Y1 (h) (Homo sapiens (Human), UniProt P25929); assay: ExpresSProfile: neuropeptide Y receptor 1, agonist radioligand; assay type: binding; conditions: Test Concentration 1.0E−05 M
Sequence of Y1 (h) (P25929 whole entry): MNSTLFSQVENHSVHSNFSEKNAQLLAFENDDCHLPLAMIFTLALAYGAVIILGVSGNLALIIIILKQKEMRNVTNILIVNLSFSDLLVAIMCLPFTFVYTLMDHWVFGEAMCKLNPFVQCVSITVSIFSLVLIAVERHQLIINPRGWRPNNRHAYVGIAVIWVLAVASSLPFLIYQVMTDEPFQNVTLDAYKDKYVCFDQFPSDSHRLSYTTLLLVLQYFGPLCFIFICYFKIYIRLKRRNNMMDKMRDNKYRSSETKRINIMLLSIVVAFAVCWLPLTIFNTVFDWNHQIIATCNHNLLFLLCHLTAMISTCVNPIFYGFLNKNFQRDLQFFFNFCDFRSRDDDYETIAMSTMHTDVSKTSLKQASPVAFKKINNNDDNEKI

[1] = Plasma stability assay, mouse plasma; assay type: in vitro ADME
Method: The plasma stability assay was performed to measure the degradation of compounds of the present invention in plasma. This is an important characteristic of a compound as compounds, with the exception of pro-drugs, which rapidly degrade in plasma generally show poor in vivo efficacy.
The plasma was spiked with a 10 mM analyte solution in dimethyl sulfoxide to a final concentration of 10 μM, vortexed, and aliquotted to 50 μl samples. Two aliquots were stored at −20° C. until further treatment. Another two aliquots were incubated using an Eppendorf Thermomixer at 37° C. for 1, 4, and 24 hours. Sample clean-up was performed using a protein precipitation plate (Phenomenex Strata Impact, 64722-1-324-1) and using acetonitrile as precipitation agent. […] An aliquot of 10 μl was diluted with 90 μl 0.1% aqueous trifluoroacetic acid solution. The determination of the analyte in the clean sample solutions was performed on a Thermo TSQ Quantum Ultra triple quadrupole mass spectrometer equipped with a thermo Surveyor HPLC. The chromatographic separation was carried out on a Phenomenex Kinetex XB-C18 HPLC column (50×2 mm, […] particle size) with gradient elution using a mixture of 0.01% trifluoroacetic acid and 0.05% formic acid in water as eluent A and methanol as eluent B (20% B to 100% in 8 min, 400 μl/min, 40° C.). For mass spectrometric detection the selected reaction monitoring (SRM) was used.
Quantitation was performed by external matrix calibration using an internal standard.

BZD (central) = assay: ExpresSProfile: benzodiazepine, agonist radioligand; assay type: binding; conditions: Test Concentration 1.0E−05 M
A1 (h) = A1 (h) (Homo sapiens (Human), UniProt P30542); assay: ExpresSProfile: adenosine receptor 1, antagonist radioligand; assay type: binding; conditions: Test Concentration 1.0E−05 M
Sequence of A1 (h) (P30542 whole entry): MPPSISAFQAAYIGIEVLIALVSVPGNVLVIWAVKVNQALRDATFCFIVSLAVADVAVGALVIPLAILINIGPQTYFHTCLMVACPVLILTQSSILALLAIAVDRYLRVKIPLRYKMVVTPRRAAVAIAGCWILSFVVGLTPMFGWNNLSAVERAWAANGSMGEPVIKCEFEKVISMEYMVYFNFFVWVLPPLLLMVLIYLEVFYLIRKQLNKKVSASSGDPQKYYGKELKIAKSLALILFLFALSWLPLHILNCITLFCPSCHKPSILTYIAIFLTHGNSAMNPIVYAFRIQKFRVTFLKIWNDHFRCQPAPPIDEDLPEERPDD

beta 2 (h) = beta 2 (h) (Homo sapiens (Human), UniProt P07550); assay: ExpresSProfile: beta2 adrenergic receptor, agonist radioligand; assay type: binding; conditions: Test Concentration 1.0E−05 M
Sequence of beta 2 (h) (P07550 whole entry): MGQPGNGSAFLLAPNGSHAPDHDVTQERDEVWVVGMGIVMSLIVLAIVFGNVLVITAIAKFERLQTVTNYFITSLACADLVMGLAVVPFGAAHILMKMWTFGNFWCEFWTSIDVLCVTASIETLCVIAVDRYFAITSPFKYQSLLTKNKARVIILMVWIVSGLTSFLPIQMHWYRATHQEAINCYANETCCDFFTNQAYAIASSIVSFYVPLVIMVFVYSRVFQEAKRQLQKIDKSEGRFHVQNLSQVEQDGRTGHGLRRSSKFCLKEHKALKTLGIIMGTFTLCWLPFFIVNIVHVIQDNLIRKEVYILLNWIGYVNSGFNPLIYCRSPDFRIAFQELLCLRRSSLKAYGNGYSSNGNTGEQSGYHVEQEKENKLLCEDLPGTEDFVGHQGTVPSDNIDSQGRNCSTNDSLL

CCR1 (h) = CCR1 (h) (Homo sapiens (Human), UniProt P32246); assay: ExpresSProfile: C-C chemokine receptor type 1, agonist radioligand; assay type: binding; conditions: Test Concentration 1.0E−05 M
AT1 (h) = AT1 (h) (Homo sapiens (Human), UniProt P30556); assay: ExpresSProfile: angiotensin receptor 1, antagonist radioligand; assay type: binding; conditions: Test Concentration 1.0E−05 M
Sequence of AT1 (h) (P30556 whole entry): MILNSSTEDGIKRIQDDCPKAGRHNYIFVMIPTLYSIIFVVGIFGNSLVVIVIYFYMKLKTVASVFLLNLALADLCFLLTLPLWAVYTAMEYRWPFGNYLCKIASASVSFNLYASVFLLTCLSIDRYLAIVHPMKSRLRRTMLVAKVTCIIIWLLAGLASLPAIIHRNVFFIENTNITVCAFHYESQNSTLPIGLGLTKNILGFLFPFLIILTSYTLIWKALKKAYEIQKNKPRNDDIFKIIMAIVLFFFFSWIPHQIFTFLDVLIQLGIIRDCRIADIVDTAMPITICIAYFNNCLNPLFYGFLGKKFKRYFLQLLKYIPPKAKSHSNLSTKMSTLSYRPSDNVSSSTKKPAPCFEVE

kappa (KOP) = kappa (KOP) (Rattus norvegicus, UniProt P34975); assay: ExpresSProfile: kappa opioid receptor, agonist radioligand; assay type: binding; conditions: Test Concentration 1.0E−05 M
MC4 (h) = MC4 (h) (Homo sapiens (Human), UniProt P32245); assay: ExpresSProfile: melanocortin receptor 4, agonist radioligand; assay type: binding; conditions: Test Concentration 1.0E−05 M
Sequence of MC4 (h) (P32245 whole entry): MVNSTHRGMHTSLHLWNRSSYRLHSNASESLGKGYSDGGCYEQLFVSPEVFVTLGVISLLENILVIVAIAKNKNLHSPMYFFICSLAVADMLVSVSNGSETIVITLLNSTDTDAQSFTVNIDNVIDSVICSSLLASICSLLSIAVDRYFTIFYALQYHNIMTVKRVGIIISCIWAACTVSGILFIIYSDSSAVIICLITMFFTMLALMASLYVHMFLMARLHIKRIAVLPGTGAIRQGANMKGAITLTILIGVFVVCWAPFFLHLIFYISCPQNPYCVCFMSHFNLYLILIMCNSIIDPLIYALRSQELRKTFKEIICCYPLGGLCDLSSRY

5-HT6 (h) = 5-HT6 (h) (Homo sapiens (Human), UniProt P50406); assay: ExpresSProfile: 5-hydroxytryptamine receptor 6, agonist radioligand; assay type: binding; conditions: Test Concentration 1.0E−05 M
Sequence of 5-HT6 (h) (P50406 whole entry): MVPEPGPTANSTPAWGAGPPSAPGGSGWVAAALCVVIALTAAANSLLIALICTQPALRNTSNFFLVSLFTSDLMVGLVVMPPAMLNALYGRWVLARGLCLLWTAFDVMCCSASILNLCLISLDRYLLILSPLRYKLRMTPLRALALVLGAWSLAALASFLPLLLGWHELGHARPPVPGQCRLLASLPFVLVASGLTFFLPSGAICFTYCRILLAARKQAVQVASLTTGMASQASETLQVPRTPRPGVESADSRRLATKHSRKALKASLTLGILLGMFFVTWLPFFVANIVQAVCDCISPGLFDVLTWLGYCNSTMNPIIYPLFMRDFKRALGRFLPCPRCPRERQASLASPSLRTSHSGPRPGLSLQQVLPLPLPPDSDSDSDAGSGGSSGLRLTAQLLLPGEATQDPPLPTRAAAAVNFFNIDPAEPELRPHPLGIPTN

5-HT transporter (h) = 5-HT transporter (h) (Homo sapiens (Human), UniProt P31645); assay: ExpresSProfile: 5-HT transporter, antagonist radioligand; assay type: binding; conditions: Test Concentration 1.0E−05 M
[2] = system: Ca2+ channel (L, verapamil site) (phenylalkylamine); assay: ExpresSProfile: Ca2+ channel, antagonist radioligand; assay type: binding; conditions: Test Concentration 1.0E−05 M
H1 (h) = H1 (h) (Homo sapiens (Human), UniProt P35367); assay: ExpresSProfile: histamine receptor 1, antagonist radioligand; assay type: binding; conditions: Test Concentration 1.0E−05 M
Sequence of H1 (h) (P35367 whole entry): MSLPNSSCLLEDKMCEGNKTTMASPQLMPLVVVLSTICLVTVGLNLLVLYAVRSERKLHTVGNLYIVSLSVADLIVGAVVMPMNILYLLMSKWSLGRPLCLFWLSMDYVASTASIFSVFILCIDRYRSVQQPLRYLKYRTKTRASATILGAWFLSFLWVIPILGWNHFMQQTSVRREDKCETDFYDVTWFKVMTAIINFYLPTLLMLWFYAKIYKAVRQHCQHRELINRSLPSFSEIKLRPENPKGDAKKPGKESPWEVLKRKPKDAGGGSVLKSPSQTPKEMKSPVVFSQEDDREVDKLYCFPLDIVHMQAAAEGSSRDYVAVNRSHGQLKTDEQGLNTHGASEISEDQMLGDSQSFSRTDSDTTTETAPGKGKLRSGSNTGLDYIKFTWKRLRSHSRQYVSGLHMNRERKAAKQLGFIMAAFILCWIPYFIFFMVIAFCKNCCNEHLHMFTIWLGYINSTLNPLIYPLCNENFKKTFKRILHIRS

Cl-channel (GABA-gated) = assay: ExpresSProfile: Cl-channel, antagonist radioligand; assay type: binding; conditions: Test Concentration 1.0E−05 M
Y2 (h) = Y2 (h) (Homo sapiens (Human), UniProt P49146); assay: ExpresSProfile: neuropeptide Y receptor 2, agonist radioligand; assay type: binding; conditions: Test Concentration 1.0E−05 M
alpha 2 (non-selective) = assay: ExpresSProfile: alpha2 adrenergic receptor, antagonist radioligand; assay type: binding; conditions: Test Concentration 1.0E−05 M
mu (MOP) (h) = mu (MOP) (h) (Homo sapiens (Human), UniProt P35372); assay: ExpresSProfile: mu opioid receptor, agonist radioligand; assay type: binding; conditions: Test Concentration 1.0E−05 M
Sequence of mu (MOP) (h) (P35372 whole entry): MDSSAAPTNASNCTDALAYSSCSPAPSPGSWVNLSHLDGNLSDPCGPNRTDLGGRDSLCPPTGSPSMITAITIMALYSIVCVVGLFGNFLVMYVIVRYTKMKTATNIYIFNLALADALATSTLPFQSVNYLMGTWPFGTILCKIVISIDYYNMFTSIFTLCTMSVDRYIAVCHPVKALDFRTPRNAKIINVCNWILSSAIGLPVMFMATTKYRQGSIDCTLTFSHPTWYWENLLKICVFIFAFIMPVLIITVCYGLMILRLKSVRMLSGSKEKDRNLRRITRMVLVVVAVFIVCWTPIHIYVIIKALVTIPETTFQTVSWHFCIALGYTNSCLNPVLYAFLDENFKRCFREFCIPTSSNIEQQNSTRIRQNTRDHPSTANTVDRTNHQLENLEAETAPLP

B2 (h) = B2 (h) (Homo sapiens (Human), UniProt P30411); assay: ExpresSProfile: bradykinin receptor 2, agonist radioligand; assay type: binding; conditions: Test Concentration 1.0E−05 M
Sequence of B2 (h) (P30411 whole entry): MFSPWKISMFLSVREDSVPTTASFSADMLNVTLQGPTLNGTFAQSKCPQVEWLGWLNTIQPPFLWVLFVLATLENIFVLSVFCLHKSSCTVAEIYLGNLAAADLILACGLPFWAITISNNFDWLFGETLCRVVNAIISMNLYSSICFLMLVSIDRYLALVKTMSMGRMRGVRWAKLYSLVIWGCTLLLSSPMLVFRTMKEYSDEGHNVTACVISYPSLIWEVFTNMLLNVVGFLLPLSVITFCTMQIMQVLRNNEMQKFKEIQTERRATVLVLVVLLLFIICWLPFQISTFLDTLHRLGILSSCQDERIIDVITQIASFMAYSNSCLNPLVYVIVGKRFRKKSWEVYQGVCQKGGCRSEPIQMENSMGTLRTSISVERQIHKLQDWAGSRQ

[3] = read-out: % Inhibition of Control Specific Binding
[4] = read-out: % of Control Specific Binding 1st
[5] = read-out: % of Control Specific Binding 2nd
[6] = read-out: % of Control Specific Binding Mean

Sequence of 5-HT1A (h) (P08908 whole entry): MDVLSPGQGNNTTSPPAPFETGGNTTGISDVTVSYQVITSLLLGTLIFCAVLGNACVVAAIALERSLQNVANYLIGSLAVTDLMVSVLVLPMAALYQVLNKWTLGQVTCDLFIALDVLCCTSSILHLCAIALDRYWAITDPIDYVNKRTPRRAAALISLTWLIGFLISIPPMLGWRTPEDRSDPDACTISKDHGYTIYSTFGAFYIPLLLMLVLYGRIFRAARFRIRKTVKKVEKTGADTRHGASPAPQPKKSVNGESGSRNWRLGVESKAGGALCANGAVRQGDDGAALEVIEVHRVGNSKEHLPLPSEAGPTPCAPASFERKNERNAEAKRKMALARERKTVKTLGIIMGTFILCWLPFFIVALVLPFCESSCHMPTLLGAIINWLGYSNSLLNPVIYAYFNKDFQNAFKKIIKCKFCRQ

## COc1cccc(OC)c1-c1cc(C(=O)NC2(C(=O)O)C3CC4CC(C3)CC2C4)nn1-c1ccc(C(=O)N(C)CCCN(C)CCCN(C)C(=O)CN2CCN(CC(=O)O)CCN(CC(=O)O)CCN(CC(=O)O)CC2)cc1C(C)C (stereo not shown) [(IIIa), 2-{[1-{4-[(3-{[3-(DOTA-methyl-amino)-propyl]-methyl-amino}-propyl)-methyl-carbamoyl]-2-isopropyl-phenyl}-5-(2,6-dimethoxy-phenyl)-1H-pyrazole-3-carbonyl]-amino}-adamantane-2-carboxylic acid]
5-HT1A (h); [3]
  inhibition at 10 µM: -29%
5-HT1A (h); [4]
  remaining activity at 10 µM: 130%
5-HT1A (h); [5]
  remaining activity at 10 µM: 129%
5-HT1A (h); [6]
  remaining activity at 10 µM: 129%
MT1 (ML1A) (h); [3]
  inhibition at 10 µM: 1%
MT1 (ML1A) (h); [4]
  remaining activity at 10 µM: 103%
MT1 (ML1A) (h); [5]
  remaining activity at 10 µM: 95.9%
MT1 (ML1A) (h); [6]
  remaining activity at 10 µM: 99.3%
V1a (h); [3]
  inhibition at 10 µM: 6%
V1a (h); [4]
  remaining activity at 10 µM: 94.1%
V1a (h); [5]
  remaining activity at 10 µM: 93%
V1a (h); [6]
  remaining activity at 10 µM: 93.5%
Y1 (h); [3]
  inhibition at 10 µM: -34%
Y1 (h); [4]
  remaining activity at 10 µM: 128%
Y1 (h); [5]
  remaining activity at 10 µM: 141%
Y1 (h); [6]
  remaining activity at 10 µM: 134%
[1]
  stability in mouse plasma: highly stable
[1]; 10 μM, 37° C., 24 h
  % remaining after 24 h incubation, Mouse plasma: >80%
BZD (central)
  % Inhibition of Control Specific Binding: −16%
  % of Control Specific Binding 1st: 109.4%
  % of Control Specific Binding 2nd: 122.6%
  % of Control Specific Binding Mean: 116.0%
A1 (h); [3]
  inhibition at 10 µM: -24%
A1 (h); [4]
  remaining activity at 10 µM: 143%
A1 (h); [5]
  remaining activity at 10 µM: 104%
A1 (h); [6]
  remaining activity at 10 µM: 124%
Beta 2 (h); [3]
  inhibition at 10 µM: -2%
Beta 2 (h); [4]
  remaining activity at 10 µM: 107%
Beta 2 (h); [5]
  remaining activity at 10 µM: 96.5%
Beta 2 (h); [6]
  remaining activity at 10 µM: 102%
CCR1 (h); [3]
  inhibition at 10 µM: -6%
CCR1 (h); [4]
  remaining activity at 10 µM: 103%
CCR1 (h); [5]
  remaining activity at 10 µM: 109%
CCR1 (h); [6]
  remaining activity at 10 µM: 106%
AT1 (h); [3]
  inhibition at 10 µM: -18%
AT1 (h); [4]
  remaining activity at 10 µM: 119%
AT1 (h); [5]
  remaining activity at 10 µM: 117%
AT1 (h); [6]
  remaining activity at 10 µM: 118%
Kappa (KOP); [3]
  inhibition at 10 µM: -2%
Kappa (KOP); [4]
  remaining activity at 10 µM: 111%
Kappa (KOP); [5]
  remaining activity at 10 µM: 92.3%
Kappa (KOP); [6]
  remaining activity at 10 µM: 102%
MC4 (h); [3]
  inhibition at 10 µM: -8%
MC4 (h); [4]
  remaining activity at 10 µM: 113%
MC4 (h); [5]
  remaining activity at 10 µM: 104%
MC4 (h); [6]
  remaining activity at 10 µM: 108%
5-HT6 (h); [3]
  inhibition at 10 µM: -6%
5-HT6 (h); [4]
  remaining activity at 10 µM: 106%
5-HT6 (h); [5]
  remaining activity at 10 µM: 105%
5-HT6 (h); [6]
  remaining activity at 10 µM: 106%
5-HT transporter (h); [3]
  inhibition at 10 µM: -13%
5-HT transporter (h); [4]
  remaining activity at 10 µM: 103%
5-HT transporter (h); [5]
  remaining activity at 10 µM: 123%
5-HT transporter (h); [6]
  remaining activity at 10 µM: 113%
[2]
  % Inhibition of Control Specific Binding: 0%
  % of Control Specific Binding 1st: 96.1%
  % of Control Specific Binding 2nd: 103.7%
  % of Control Specific Binding Mean: 99.9%
H1 (h); [3]
  inhibition at 10 µM: -12%
H1 (h); [4]
  remaining activity at 10 µM: 121%
H1 (h); [5]
  remaining activity at 10 µM: 103%
H1 (h); [6]
  remaining activity at 10 µM: 112%
Cl-channel (GABA-gated)
  % Inhibition of Control Specific Binding: 2%
  % of Control Specific Binding 1st: 106.5%
  % of Control Specific Binding 2nd: 89.1%
  % of Control Specific Binding Mean: 97.8%
Y2 (h); [3]
  inhibition at 10 µM: -23%
Y2 (h); [4]
  remaining activity at 10 µM: 130%
Y2 (h); [5]
  remaining activity at 10 µM: 116%
Y2 (h); [6]
  remaining activity at 10 µM: 123%
Alpha 2 (non-selective)
  % Inhibition of Control Specific Binding: −10%
  % of Control Specific Binding 1st: 114.4%
  % of Control Specific Binding 2nd: 106.1%
  % of Control Specific Binding Mean: 110.3%
Mu (MOP) (h); [3]
  inhibition at 10 µM: 0%
Mu (MOP) (h); [4]
  remaining activity at 10 µM: 108%
Mu (MOP) (h); [5]
  remaining activity at 10 µM: 92.6%
Mu (MOP) (h); [6]
  remaining activity at 10 µM: 100%
B2 (h); [3]
  inhibition at 10 µM: 11%
B2 (h); [4]
  remaining activity at 10 µM: 98.7%
B2 (h); [5]
  remaining activity at 10 µM: 79.9%
B2 (h); [6]
  remaining activity at 10 µM: 89.3%
